Measured values reported in PubChem BioAssay (NCI).
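Each compound was tested at five concentrations against cells in 96-well plates for 48 hours. TGI: concentration producing complete growth inhibition.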

Key:
Assay in all cases: DTP human tumour cell line panel, 48 h
UACC-257 melanoma = tested on: UACC-257 melanoma
HCT-116 colon = tested on: HCT-116 colon
NCI-H522 lung = tested on: NCI-H522 lung
SF-295 CNS = tested on: SF-295 CNS
SW-620 colon = tested on: SW-620 colon
EKVX NSCLC = tested on: EKVX NSCLC
SF-539 CNS = tested on: SF-539 CNS
NCI-H23 lung = tested on: NCI-H23 lung
SNB-19 CNS = tested on: SNB-19 CNS
HCT-15 colon = tested on: HCT-15 colon
MALME-3M melanoma = tested on: MALME-3M melanoma
DMS 114 small cell lung = tested on: DMS 114 small cell lung
HL-60(TB) leukemia = tested on: HL-60(TB) leukemia
NCI-H460 lung = tested on: NCI-H460 lung
HOP-62 NSCLC = tested on: HOP-62 NSCLC
M19-MEL melanoma = tested on: M19-MEL melanoma
SK-MEL-28 melanoma = tested on: SK-MEL-28 melanoma
786-0 renal = tested on: 786-0 renal
RXF 393 renal = tested on: RXF 393 renal
UO-31 renal = tested on: UO-31 renal
M14 melanoma = tested on: M14 melanoma
HT29 colon = tested on: HT29 colon
COLO 205 colon = tested on: COLO 205 colon
ACHN renal = tested on: ACHN renal
OVCAR-3 ovarian = tested on: OVCAR-3 ovarian
HOP-18 NSCLC = tested on: HOP-18 NSCLC
MOLT-4 leukemia = tested on: MOLT-4 leukemia
LOX IMVI melanoma = tested on: LOX IMVI melanoma
SNB-75 CNS = tested on: SNB-75 CNS
CCRF-CEM leukemia = tested on: CCRF-CEM leukemia
A549 NSCLC = tested on: A549 NSCLC
OVCAR-8 ovarian = tested on: OVCAR-8 ovarian
SK-OV-3 ovarian = tested on: SK-OV-3 ovarian
DMS 273 small cell lung = tested on: DMS 273 small cell lung
KM12 colon = tested on: KM12 colon
RPMI-8226 leukemia = tested on: RPMI-8226 leukemia
IGROV1 ovarian = tested on: IGROV1 ovarian
K-562 leukemia = tested on: K-562 leukemia
SN12C renal = tested on: SN12C renal
UACC-62 melanoma = tested on: UACC-62 melanoma
NCI-H226 lung = tested on: NCI-H226 lung
DLD-1 colon = tested on: DLD-1 colon
TK-10 renal = tested on: TK-10 renal
U251 CNS = tested on: U251 CNS
XF 498 CNS = tested on: XF 498 CNS
OVCAR-5 ovarian = tested on: OVCAR-5 ovarian
OVCAR-4 ovarian = tested on: OVCAR-4 ovarian
HCC-2998 colon = tested on: HCC-2998 colon
LXFL 529 NSCLC = tested on: LXFL 529 NSCLC
SK-MEL-5 melanoma = tested on: SK-MEL-5 melanoma
SR leukemia = tested on: SR leukemia
SK-MEL-2 melanoma = tested on: SK-MEL-2 melanoma
KM20L2 colon = tested on: KM20L2 colon
SNB-78 CNS = tested on: SNB-78 CNS
A498 renal = tested on: A498 renal

`Nc1nc2c(c(=O)[nH]1)NC(CO)CN2` (stereo not drawn) showed a TGI (UACC-257 melanoma) of 64.3 µM, a TGI (HCT-116 colon) of over 100 µM and a TGI (NCI-H522 lung) of over 100 µM. It also gave a TGI (SF-295 CNS) of over 100 µM, a TGI (SW-620 colon) of over 100 µM and a TGI (EKVX NSCLC) of over 100 µM. For the same compound, the TGI (SF-539 CNS) was over 100 µM, the TGI (NCI-H23 lung) was over 100 µM and the TGI (SNB-19 CNS) was over 100 µM. It also gave a TGI (HCT-15 colon) of over 100 µM, a TGI (MALME-3M melanoma) of over 100 µM and a TGI (DMS 114 small cell lung) of over 100 µM. The TGI (HL-60(TB) leukemia) was over 100 µM, the TGI (NCI-H460 lung) was over 100 µM and the TGI (HOP-62 NSCLC) was over 100 µM. It also gave a TGI (M19-MEL melanoma) of over 100 µM, a TGI (SK-MEL-28 melanoma) of over 100 µM and a TGI (786-0 renal) of over 100 µM. For the same compound, the TGI (RXF 393 renal) was over 100 µM, the TGI (UO-31 renal) was over 100 µM and the TGI (M14 melanoma) was over 100 µM. For the same compound, the TGI (HT29 colon) was over 100 µM, the TGI (COLO 205 colon) was over 100 µM and the TGI (ACHN renal) was over 100 µM. For the same compound, the TGI (OVCAR-3 ovarian) was over 100 µM, the TGI (HOP-18 NSCLC) was over 100 µM and the TGI (MOLT-4 leukemia) was over 100 µM. It also gave a TGI (LOX IMVI melanoma) of 36.7 µM, a TGI (SNB-75 CNS) of over 100 µM and a TGI (CCRF-CEM leukemia) of over 100 µM. It also gave a TGI (A549 NSCLC) of over 100 µM, a TGI (OVCAR-8 ovarian) of over 100 µM and a TGI (SK-OV-3 ovarian) of over 100 µM. It also gave a TGI (DMS 273 small cell lung) of over 100 µM, a TGI (KM12 colon) of over 100 µM and a TGI (RPMI-8226 leukemia) of over 100 µM. For the same compound, the TGI (IGROV1 ovarian) was over 100 µM, the TGI (K-562 leukemia) was over 100 µM and the TGI (SN12C renal) was over 100 µM. For the same compound, the TGI (UACC-62 melanoma) was over 100 µM, the TGI (NCI-H226 lung) was over 100 µM and the TGI (DLD-1 colon) was over 100 µM. For the same compound, the TGI (TK-10 renal) was over 100 µM, the TGI (U251 CNS) was over 100 µM and the TGI (XF 498 CNS) was over 100 µM.
In the case of `CC1CCP(=O)(c2ccccc2)c2ccccc21` (stereo not drawn), the TGI (UACC-257 melanoma) is reported as over 100 µM, the TGI (HCT-116 colon) is reported as 46.7 µM and the TGI (NCI-H522 lung) is reported as over 100 µM. It also gave a TGI (SF-295 CNS) of over 100 µM, a TGI (EKVX NSCLC) of over 100 µM and a TGI (SF-539 CNS) of over 100 µM. It also gave a TGI (NCI-H23 lung) of over 100 µM, a TGI (SNB-19 CNS) of over 100 µM and a TGI (HCT-15 colon) of over 100 µM. It also gave a TGI (MALME-3M melanoma) of over 100 µM, a TGI (DMS 114 small cell lung) of over 100 µM and a TGI (OVCAR-5 ovarian) of over 100 µM. The TGI (OVCAR-4 ovarian) was over 100 µM, the TGI (HCC-2998 colon) was over 100 µM and the TGI (HL-60(TB) leukemia) was 41.1 µM. It also gave a TGI (LXFL 529 NSCLC) of over 100 µM, a TGI (NCI-H460 lung) of 80.3 µM and a TGI (HOP-62 NSCLC) of over 100 µM. It also gave a TGI (M19-MEL melanoma) of 58.5 µM, a TGI (SK-MEL-28 melanoma) of over 100 µM and a TGI (786-0 renal) of over 100 µM. The TGI (RXF 393 renal) was over 100 µM, the TGI (UO-31 renal) was over 100 µM and the TGI (M14 melanoma) was over 100 µM. The TGI (HT29 colon) was over 100 µM, the TGI (COLO 205 colon) was over 100 µM and the TGI (ACHN renal) was over 100 µM. It also gave a TGI (OVCAR-3 ovarian) of over 100 µM, a TGI (HOP-18 NSCLC) of over 100 µM and a TGI (SK-MEL-5 melanoma) of over 100 µM. The TGI (MOLT-4 leukemia) was 75.4 µM, the TGI (LOX IMVI melanoma) was 58 µM and the TGI (SNB-75 CNS) was over 100 µM. It also gave a TGI (CCRF-CEM leukemia) of over 100 µM, a TGI (A549 NSCLC) of over 100 µM and a TGI (OVCAR-8 ovarian) of over 100 µM. For the same compound, the TGI (SK-OV-3 ovarian) was over 100 µM, the TGI (SR leukemia) was 96.9 µM and the TGI (DMS 273 small cell lung) was 90.2 µM. The TGI (KM12 colon) was over 100 µM, the TGI (RPMI-8226 leukemia) was over 100 µM and the TGI (IGROV1 ovarian) was over 100 µM. The TGI (SK-MEL-2 melanoma) was over 100 µM, the TGI (K-562 leukemia) was 62.9 µM and the TGI (KM20L2 colon) was over 100 µM. The TGI (SN12C renal) was 85.6 µM, the TGI (UACC-62 melanoma) was over 100 µM and the TGI (NCI-H226 lung) was over 100 µM. For the same compound, the TGI (SNB-78 CNS) was over 100 µM, the TGI (DLD-1 colon) was over 100 µM and the TGI (TK-10 renal) was over 100 µM. It also gave a TGI (A498 renal) of over 100 µM and a TGI (U251 CNS) of 53.3 µM.
